The nature of data set [1]: Myelosuppressive potential: spleen and thymus relative weights, 14-day oral dosing. It is filed as in vivo, Wistar rats. The text has this:
Compound No.30 of U.S. Pat. […] Vehicle treated controls were maintained using identical experimental conditions. The treated as well as control rats were sacrificed 24 hr after the last dose. One parameter measured was the spleen to body weight ratio and thymus to body weight ratio in treated versus control animals. The spleen and thymus were trimmed free of fat and other contiguous organs/tissues and were weighed in an analytical balance (Sartorious BP 210). The spleen to terminal body weight ratio and the thymus to terminal body weights ratio was calculated to provide the respective relative weights. The ratio value of the respective relative weight of a treated animal versus the relative weight of a control animal is provided in Table 4. The myelosuppressive potential of a compound is inversely proportional to the ratio value. […] Values in each of the first two columns above represent ratio of relative weight (calculated organ to body weight ratio) of spleen or thymus in drug treated animals v/s control animals. […] The “[…]” column provides ratio of percentage reticulocytes in treated v/s percentage reticulocytes in control rats.

Data set [2] concerns Enterococcus faecalis ATCC 29212. As to the kind of experiment: In-vitro MIC test (agar dilution), E. faecalis. The data set is classed as cell-based. The following applies: ATCC29212, Mueller Hinton agar, 24 hrs at 35° C., read-out: Minimum Inhibitory Concentrations (MIC) E. faecalis. An excerpt: (§1) The test methods used for verifying the antimicrobial action of compound within the scope of this invention are essentially the same as those described in PCT WO 95/25106, U.S. Pat. No. 5,668,286 and EP 0 750, 618 B1, with the difference that the strains of the organisms used for the MIC determinations in these patents and applications are Staphylococcus aureus ATCC 25923, Staphylococcus epidermidis ATCC 12828, Streptococcus pyogenes ATCC 19615.
(§2) The in-vitro MIC methods of test compounds were determined essentially as described in PCT WO 95/25106, U.S. Pat. No. 5,668,286 and EP 0 750 618 B1.
(§3) Overnight grown cultures of S. aureus organisms in Tryptic Soya broth were diluted in Mueller Hinton Broth to give optical density matching with MacFarland tube 0.5 standard. Cultures were further diluted 1:10 in Mueller Hinton broth. Using Denley's mutipoint inoculator, 10^4 cells were deposited on Mueller Hinton agar (Difco) containing range of 2 fold dilutions of test compounds. These plates were incubated for 24 hrs at 35° C. and MIC results recorded. MIC is defined as minimum drug concentration that inhibits test organisms. For determining MIC of test compounds against Streptococcus pneumoniae, Mueller Hinton agar containing 5% sheep blood was employed.
For orientation: In agar dilution, organisms are placed on agar that contains the substance at set levels.

The nature of data set [3]: Pharmacokinetic study, single I.V. bolus dose in beagle dog. It is filed as in vivo. The conditions noted are these: iv, single I.V. bolus dose 15 mg/kg (table title), Compound No. 4 and linezolid in 5% Tween, other compounds in cyclodextrin, serum; for concentration at 12 hr: read-out: C-12 hr; for AUC(0-t): read-out: AUC (0-24 hr). How it is done: Blood samples were collected at time points of 0, 0.08 (not for oral), 0.25, 0.50, 1.0, 1.5, 2.0, 3.0, 4.0, 5.0, 6.0, 8.0, 10.0, 12.0 and 24.0 hours. To facilitate i.v. dosing and collection of blood samples, the dogs were implanted with cannula in cephalic vein. Serum obtained from blood samples was used for HPLC-based analysis.
Serum samples were extracted by solid phase extraction technique using Water's OASIS HLB cartridges. An HPLC-Diode array detection system was used for analysis. Prepared samples were chromatographed on a YMC-AM reversed phase column (150×4.6 mm ID; 5 μm) using an isocratic mobile phase acetate buffer (50 mmol ammonium acetate pH 6.6) acetonitrile, 66:34% v/v (for a representative compound of the invention, 68:32% v/v for compound Nos. 30, 3, 7 and 11 of U.S. Pat. No. 5,668,286, and 75:25% v/v for linezolid) at a flow rate of 1 ml/min, measured at λmax 254 nm. Independently prepared analytical standards and quality control samples were analyzed with each set of unknown samples.
The pharmacokinetics of a representative compound of the invention following single I.V. bolus dose administration of the compound in beagle dog is shown in Table 3.

The subject of data set [4] is Streptococcus pneumoniae ATCC 49619. As to the kind of experiment: In-vitro MIC test (agar dilution, 5% sheep blood), S. pneumoniae. It is filed as cell-based. The following applies: ATCC49619, Mueller Hinton agar containing 5% sheep blood, read-out: Minimum Inhibitory Concentrations (MIC) S. pneumoniae.
Excerpt: as §1, §2, §3

Setting [5] is: Wistar rats, oral, 14 consecutive days, 50 mg/kg per day (LNZ 2×25 mg/kg per day), ratio less than 0.75 indicates myelosuppressive potential.

≈ marks a conversion by molar mass, not a printed value.

The Cmax is the peak of the concentration-time curve. Usually half-life stands for the time needed for the level to fall by half in the phase considered. Lower therefore signals rapid decline. In the case of `CC(=O)NC[C@H]1CN(c2ccc(N3CCC(CC#N)CC3)c(F)c2)C(=O)O1` [Compound 4, (S)-N-{3-[4-(4-cyanomethyl-piperidin-1-yl)-3-fluoro-phenyl]-2-oxo-oxazolidin-5-ylmethyl}-acetamide], in data set [1] (rat, in vivo), the “myelosuppressive potential (in words)” value is recorded as “no or lower myelosuppressive potential”. Besides, the MIC in data set [2] worked out at 2 µg/mL (≈ 5.34 µM). In data set [3], the Cmax is 8280 ng/mL, the concentration at 12 hr is 2640 ng/mL, the half-life is 777 min and the AUC(0-t) amounted to 80900 ng·h/mL. Also, in data set [4], the MIC was 1 µg/mL (≈ 2.67 µM).

For `CC(=O)NC[C@H]1CN(c2ccc(N3CCOCC3)c(F)c2)C(=O)O1` [Linezolid], in data set [1] (setting [5]), the “Relative Weights Ratio Spleen (spleen weight/body weight of treated animal versus control animal)” value was determined as 0.46 and the “Relative Weights Ratio Thymus (thymus weight/body weight of treated animal versus control animal)” value amounted to 0.46. For the same compound, in data set [2], the MIC came to 2 µg/mL (≈ 5.93 µM). For the same compound, in data set [3], the Cmax stood at 7160 ng/mL, the concentration at 12 hr turned out to be 0 ng/mL, the half-life is 145 min and the AUC(0-t) stood at 23300 ng·h/mL. Besides, in data set [4], the MIC amounted to 0.5 µg/mL (≈ 1.48 µM).

These data come from patent US20040235900A1, “Antimicrobial oxazolifinones with improved pharmacokinetic profile and safety advantages” (priority 2002, published 2004).
